Measurements from patent US20250122581A1, “TUMOR AND METASTASIZING MARKER” (UNIVERSITAET ZU KOELN, priority 2017, published 2025).

Tests used:
Vim3 [1] = test: Vim3 expression analysis by qRT-PCR in treated MX-1 cells; format: cell-based; settings: combinational stimulation with Tam
Experimental: MCF-7 cells were cultured under normal conditions and treated with the mentioned substances. Tamoxifen treatment was performed 1 hour prior ET-1 or β-estradiol treatment. […] From cells after treatment, the mRNA was isolated and qRT-PCR was performed.

Vim3 [2] = test: Vim3 expression analysis by qRT-PCR in treated MCF-7 cells; format: cell-based; settings: combined pretreatment with tamoxifen and β-estradiol/ET-1, p<0.01
Description: FIG. 25A-FIG. 25C show Vim3 expression analysis of treated MX-1 (FIG. 25A; FIG. 25B) and MCF-7 (FIG. 25C) cells by qRT-PCR analysis. […] In both diagrams the increase in Vim3 expression up to ca 700 RFU upon a combinational stimulation with Tam is decisive. Data shown is derived from quadruplicates from an independent experiment. *P<0.05, **P<0.01 and ***P<0.001.
(§1) The dependency of the overexpression of Vim3 due to ET-1 presence and after tamoxifen treatment was shown in cell culture experiments and analyzed via Western blot. The expression of Vim3and ET-1 was analyzed in paraffin-embedded tissue samples of patients with metastatic breast cancers after tamoxifen treatment. MCF-7 cells were cultured under normal conditions and treated with the mentioned substances. Tamoxifen treatment was performed 1 hour prior ET-1 or β-estradiol treatment. Nuclear extracts were isolated and analyzed via Western blot under standard conditions. A Proximity Ligation Assay (PLA) assay was performed according to the manufacturer's protocol. From cells after treatment, the mRNA was isolated and qRT-PCR was performed. Immunohistochemistry was performed according to standardized conditions.

Vim3 [3] = test: Western blot with densitometry of Vim3 in total cell extract of stimulated MCF-7; format: cell-based; settings: combined Tam plus ET-1 pretreatment versus ET-1 alone, p<0.001
Experimental: WB with 20 μg non-precipitated total cell extract of stimulated MCF-7. The corresponding densitometric analysis of the present bands of a protein analysis on the WB membrane where the intense band of Vim3 (47 kDa) is striking as compared to the very faint band of GAPDH in the same sample is shown with ImageJ, where the background and the control had been subtracted.
Furthermore, the effect of Tam was studied with regard to its translational capacity for Vim3 after a combined Tam plus ET-1 pretreatment versus ET-1 alone. […] Tam upregulates Vim3.

ET-1 = test: Western blot of nuclear extracts of treated MCF-7 breast cancer cells; format: cell-based; settings: nuclear extracts from breast cancer cells after Tamoxifen treatment
Experimental: as §1

Vim3 [4] = test: Immunohistochemistry of Vim3 in breast cancer specimens and metastases after tamoxifen treatment; format: in vivo, human
Experimental: as §1
Vim3 Expression in Invasive Ductal Breast Carcinoma, and Its Metastases From the pre-evaluation of breast cancer specimen via tissue-microarray it was known that ET-1 and Vim3 staining could be detected in tumor cells, while vimentin full length was only positive in the interstitial tissue. To analyze the expression of the newly described target gene Vim3 in more detail, its expression was investigated in […] biopsies and their respective resection specimens of breast cancer cases. […] In each biopsy, Vim3 was detected, either in nuclear (20/25; strong expression: 3+) and/or diffuse cytoplasmic (25/25) localization. After Tam treatment, seventeen respective resection specimens were still diffusely positive for Vim3, now mainly in a cytoplasmic localization (12/17), with nuclear localization additionally found in 5 specimens (5/17). In 4 cases, lymph node but no other metastases were reported (4/28). In contrast, 7 cases developed organ metastases (7/28), of which 3 had additional lymph node metastases.
The expression of Vim3 and ERB was investigated in resection specimens and their metastases. In a set of 8 cases positive for ERa after tam pretreatment, it was found again a diffuse cytoplasmic expression of Vim3. In addition, in […] metastases (pleura 2×, skin 2×, bone 3×, uterus 1×, liver 1×, soft tissue 1x) Vim3 was also expressed (cytoplasm: 12/12; additional nuclear expression 5/12). In 7 of the 12 metastases, a 3+ nuclear expression for ERB was found, which was in all investigated cases accompanied by Vim3 expression.

Vimentin 3 = test: Cell culture experiments after ET-1 treatment, Western blot; format: cell-based; settings: cell culture (DU145)
Experimental: Furthermore, cell culture experiments were conducted after ET-1 treatment over different time points and analyzed via Western blot the expression of the different proteins mentioned above. For the ET-1 ELISA and Vim3 ELISA 100 μl of serum was used. DU145 cells were cultured under normal conditions and treated with the substances mentioned. Cells were scratched before treatment. The ET-receptors were blocked 1 h before ET-1 stimulation. Immunofluorescence was performed on paraffin-embedded prostate cancer samples. This immunofluorescence has been carried out as described in Example 1 above. In addition to Vim3-specific antibodies, also Atg7- and pg3-specific primary antibodies have been used.

[5] = breast cancer resection specimens, positive/total

SMILES | Vim3 expression (qRT-PCR) (Vim3 [1]) [RFU] | mRNA Vim3 expression (Vim3 [2]) | formation of Vim3 protein (Western blot densitometry) (Vim3 [3]) | ET-1 signal in the nuclear fraction (ET-1) | ET-1 signal in the nuclear fraction (ET-1; listed as Tamoxifen) | mastectomies with cytoplasmic Vim3 staining after Tam (Vim3 [4]; biopsies before Tam: nuclear positivity 19/21) | resection specimens with additional nuclear Vim3 localization after Tam treatment (Vim3 [4]; [5]) | resection specimens with cytoplasmic Vim3 localization after Tam treatment (Vim3 [4]; [5]) | Vim3 level in tamoxifen-treated tumors and metastases (Vim3 [4]; patients with metastatic breast cancers after tamoxifen treatment) | Vimentin 3 production after ET-1 treatment (Vimentin 3)
CC/C(=C(\c1ccccc1)c1ccc(OCCN(C)C)cc1)c1ccccc1 [tamoxifen] | ~700 | clear increase in mRNA Vim3 expression | highly statistically significant induced formation of Vim3 | ET-1 expression is triggered | significant upregulation of the ET-1 signal in the nuclear fraction | 13/17 | 5/17 | 12/17 | an increase of Vim3 was found in both, the tumor as well as the metastases | –
CC[C@H](C)[C@H](NC(=O)[C@H](CC(=O)O)NC(=O)[C@H](CC(C)C)NC(=O)[C@H](Cc1c[nH]cn1)NC(=O)[C@@H]1CSSC[C@H](N)C(=O)N[C@@H](CO)C(=O)N[C@H]2CSSC[C@H](NC(=O)[C@H](CCC(=O)O)NC(=O)[C@H](CCCCN)NC(=O)[C@H](CC(=O)O)NC(=O)[C@H](CCSC)NC(=O)[C@H](CC(C)C)NC(=O)[C@H](CO)NC(=O)[C@H](CO)NC2=O)C(=O)N[C@@H](C(C)C)C(=O)N[C@@H](Cc2ccc(O)cc2)C(=O)N[C@@H](Cc2ccccc2)C(=O)N1)C(=O)N[C@H](C(=O)N[C@@H](Cc1c[nH]c2ccccc12)C(=O)O)[C@@H](C)CC [ET-1, Endothelin-1] | – | – | – | – | – | – | – | – | – | produce more Vimentin 3
